Data: ChEMBL document CHEMBL4507267 (2021)

Experiments:
[1] = target: AP2-associated protein kinase 1 (Homo sapiens) (UniProt Q2M2I8); conditions: Compound concentration 1000.0 nM
[2] = tested on: Tyrosine-protein kinase ABL1 (Homo sapiens), P00519 [H396P]; conditions: Compound concentration 1000.0 nM
[3] = target: Activin receptor type-2A (Homo sapiens) (UniProt P27037); conditions: Compound concentration 1000.0 nM
[4] = target: RAC-gamma serine/threonine-protein kinase (Homo sapiens) (UniProt Q9Y243); conditions: Compound concentration 1000.0 nM
[5] = tested on: ALK tyrosine kinase receptor (Homo sapiens), Q9UM73 [L1196M]; conditions: Compound concentration 1000.0 nM
[6] = target: 5'-AMP-activated protein kinase catalytic subunit alpha-2 (Homo sapiens) (UniProt P54646); conditions: Compound concentration 1000.0 nM
[7] = target: Aurora kinase A (Homo sapiens) (UniProt O14965); conditions: Compound concentration 1000.0 nM
[8] = target: BMP-2-inducible protein kinase (Homo sapiens) (UniProt Q9NSY1); conditions: Compound concentration 1000.0 nM
[9] = tested on: Serine/threonine-protein kinase B-raf (Homo sapiens), P15056 [V600E]; conditions: Compound concentration 1000.0 nM
[10] = target: Mitotic checkpoint serine/threonine-protein kinase BUB1 (Homo sapiens) (UniProt O43683); conditions: Compound concentration 1000.0 nM
[11] = target: Cyclin-dependent kinase 8 (Homo sapiens) (UniProt P49336); conditions: Compound concentration 1000.0 nM
[12] = target: Serine/threonine-protein kinase Chk1 (Homo sapiens) (UniProt O14757); conditions: Compound concentration 1000.0 nM
[13] = target: Dual specificity protein kinase CLK4 (Homo sapiens) (UniProt Q9HAZ1); conditions: Compound concentration 1000.0 nM
[14] = target: Casein kinase I isoform gamma-1 (Homo sapiens) (UniProt Q9HCP0); conditions: Compound concentration 1000.0 nM
[15] = target: Serine/threonine-protein kinase DCLK3 (Homo sapiens) (UniProt Q9C098); conditions: Compound concentration 1000.0 nM
[16] = target: Myotonin-protein kinase (Homo sapiens) (UniProt Q09013); conditions: Compound concentration 1000.0 nM
[17] = tested on: Epidermal growth factor receptor (Homo sapiens), P00533 [UNDEFINED MUTATION]; conditions: Compound concentration 1000.0 nM
[18] = tested on: Epidermal growth factor receptor (Homo sapiens), P00533 [T790M]; conditions: Compound concentration 1000.0 nM
[19] = target: Ephrin type-B receptor 2 (Homo sapiens) (UniProt P29323); conditions: Compound concentration 1000.0 nM
[20] = target: Ephrin type-B receptor 3 (Homo sapiens) (UniProt P54753); conditions: Compound concentration 1000.0 nM
[21] = target: Receptor tyrosine-protein kinase erbB-3 (Homo sapiens) (UniProt P21860); conditions: Compound concentration 1000.0 nM
[22] = target: Mitogen-activated protein kinase 6 (Homo sapiens) (UniProt Q16659); conditions: Compound concentration 1000.0 nM
[23] = target: Tyrosine-protein kinase Fgr (Homo sapiens) (UniProt P09769); conditions: Compound concentration 1000.0 nM
[24] = tested on: Receptor-type tyrosine-protein kinase FLT3 (Homo sapiens), P36888 [UNDEFINED MUTATION]; conditions: Compound concentration 1000.0 nM
[25] = target: Glycogen synthase kinase-3 beta (Homo sapiens) (UniProt P49841); conditions: Compound concentration 1000.0 nM
[26] = target: Hormonally up-regulated neu tumor-associated kinase (Homo sapiens) (UniProt P57058); conditions: Compound concentration 1000.0 nM
[27] = target: Inhibitor of nuclear factor kappa-B kinase subunit beta (Homo sapiens) (UniProt O14920); conditions: Compound concentration 1000.0 nM
[28] = target: Serine/threonine-protein kinase 10 (Homo sapiens) (UniProt O94804); conditions: Compound concentration 1000.0 nM
[29] = target: Mitogen-activated protein kinase kinase kinase 9 (Homo sapiens) (UniProt P80192); conditions: Compound concentration 1000.0 nM
[30] = target: Serine/threonine-protein kinase 4 (Homo sapiens) (UniProt Q13043); conditions: Compound concentration 1000.0 nM
[31] = target: Serine/threonine-protein kinase NLK (Homo sapiens) (UniProt Q9UBE8); conditions: Compound concentration 1000.0 nM
[32] = target: Cyclin-dependent kinase 14 (Homo sapiens) (UniProt O94921); conditions: Compound concentration 1000.0 nM
[33] = tested on: Phosphatidylinositol 4,5-bisphosphate 3-kinase catalytic subunit alpha isoform (Homo sapiens), P42336 [I800L]; conditions: Compound concentration 1000.0 nM
[34] = target: Serine/threonine-protein kinase pim-1 (Homo sapiens) (UniProt P11309); conditions: Compound concentration 1000.0 nM
[35] = target: Protein kinase C eta type (Homo sapiens) (UniProt P24723); conditions: Compound concentration 1000.0 nM
[36] = target: Protein-tyrosine kinase 2-beta (Homo sapiens) (UniProt Q14289); conditions: Compound concentration 1000.0 nM
[37] = target: Ribosomal protein S6 kinase alpha-3 (Homo sapiens) (UniProt P51812); conditions: Compound concentration 1000.0 nM
[38] = target: Ribosomal protein S6 kinase alpha-2 (Homo sapiens) (UniProt Q15349); conditions: Compound concentration 1000.0 nM
[39] = target: Serine/threonine-protein kinase 33 (Homo sapiens) (UniProt Q9BYT3); conditions: Compound concentration 1000.0 nM
[40] = target: TGF-beta receptor type-1 (Homo sapiens) (UniProt P36897); conditions: Compound concentration 1000.0 nM
[41] = target: Non-receptor tyrosine-protein kinase TYK2 (Homo sapiens) (UniProt P29597); conditions: Compound concentration 1000.0 nM
[42] = target: Tyrosine-protein kinase receptor TYRO3 (Homo sapiens) (UniProt Q06418); conditions: Compound concentration 1000.0 nM
[43] = target: Phosphatidylinositol 3-kinase catalytic subunit type 3 (Homo sapiens) (UniProt Q8NEB9); conditions: Compound concentration 1000.0 nM
[44] = target: 5-hydroxytryptamine receptor 2C (Homo sapiens) (UniProt P28335); conditions: Compound concentration 10.0 uM
[45] = target: Muscarinic acetylcholine receptor M1 (Homo sapiens) (UniProt P11229); conditions: Compound concentration 10.0 uM

Chain of Serine/threonine-protein kinase 33 (Homo sapiens) (Q9BYT3 whole entry, looked up): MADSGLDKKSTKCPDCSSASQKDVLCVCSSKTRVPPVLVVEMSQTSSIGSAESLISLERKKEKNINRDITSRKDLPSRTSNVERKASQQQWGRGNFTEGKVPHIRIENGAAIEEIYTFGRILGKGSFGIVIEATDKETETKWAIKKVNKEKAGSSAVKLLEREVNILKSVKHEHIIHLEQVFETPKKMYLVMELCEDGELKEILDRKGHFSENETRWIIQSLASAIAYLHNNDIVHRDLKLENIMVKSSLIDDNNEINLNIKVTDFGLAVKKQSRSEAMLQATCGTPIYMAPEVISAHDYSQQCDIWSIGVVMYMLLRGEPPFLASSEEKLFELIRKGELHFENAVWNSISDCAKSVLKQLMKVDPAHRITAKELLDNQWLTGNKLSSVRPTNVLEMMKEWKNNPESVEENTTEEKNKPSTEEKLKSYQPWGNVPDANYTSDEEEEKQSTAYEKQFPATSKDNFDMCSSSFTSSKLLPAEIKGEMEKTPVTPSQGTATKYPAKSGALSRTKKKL
Chain of Serine/threonine-protein kinase B-raf (Homo sapiens), P15056 [V600E] (P15056 whole entry V600E): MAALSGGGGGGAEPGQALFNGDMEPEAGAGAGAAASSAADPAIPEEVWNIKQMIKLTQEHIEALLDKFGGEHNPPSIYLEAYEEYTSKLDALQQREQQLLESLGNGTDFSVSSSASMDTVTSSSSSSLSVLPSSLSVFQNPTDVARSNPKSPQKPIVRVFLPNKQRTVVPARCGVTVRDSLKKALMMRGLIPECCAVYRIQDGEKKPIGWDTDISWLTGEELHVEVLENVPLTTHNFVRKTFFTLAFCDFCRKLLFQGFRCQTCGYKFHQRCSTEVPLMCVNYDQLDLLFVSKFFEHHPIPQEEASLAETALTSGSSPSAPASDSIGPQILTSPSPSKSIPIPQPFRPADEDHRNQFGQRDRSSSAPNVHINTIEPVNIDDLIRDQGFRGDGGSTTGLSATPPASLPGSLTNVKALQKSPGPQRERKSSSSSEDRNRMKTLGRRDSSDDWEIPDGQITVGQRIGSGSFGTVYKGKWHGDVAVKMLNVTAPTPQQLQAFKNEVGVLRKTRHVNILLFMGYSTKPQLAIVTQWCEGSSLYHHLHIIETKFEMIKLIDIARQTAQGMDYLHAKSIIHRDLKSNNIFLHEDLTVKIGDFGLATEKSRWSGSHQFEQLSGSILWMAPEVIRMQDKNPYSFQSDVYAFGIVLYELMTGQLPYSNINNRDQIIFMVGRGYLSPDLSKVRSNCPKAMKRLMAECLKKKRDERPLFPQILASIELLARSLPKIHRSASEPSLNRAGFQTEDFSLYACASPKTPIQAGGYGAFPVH
Chain of Cyclin-dependent kinase 8 (Homo sapiens) (P49336 whole entry): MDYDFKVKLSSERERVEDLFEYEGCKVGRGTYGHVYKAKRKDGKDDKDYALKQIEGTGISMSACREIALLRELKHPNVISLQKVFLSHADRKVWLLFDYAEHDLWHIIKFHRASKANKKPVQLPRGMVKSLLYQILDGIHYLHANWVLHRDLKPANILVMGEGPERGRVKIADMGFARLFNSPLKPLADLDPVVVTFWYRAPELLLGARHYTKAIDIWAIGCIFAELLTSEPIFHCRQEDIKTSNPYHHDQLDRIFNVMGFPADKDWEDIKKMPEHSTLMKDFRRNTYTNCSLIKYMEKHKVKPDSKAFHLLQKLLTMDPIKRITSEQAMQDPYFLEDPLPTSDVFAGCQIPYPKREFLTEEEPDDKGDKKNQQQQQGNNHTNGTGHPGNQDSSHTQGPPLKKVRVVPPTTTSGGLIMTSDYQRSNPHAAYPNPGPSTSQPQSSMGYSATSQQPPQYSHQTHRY
Chain of 5-hydroxytryptamine receptor 2C (Homo sapiens) (P28335 whole entry): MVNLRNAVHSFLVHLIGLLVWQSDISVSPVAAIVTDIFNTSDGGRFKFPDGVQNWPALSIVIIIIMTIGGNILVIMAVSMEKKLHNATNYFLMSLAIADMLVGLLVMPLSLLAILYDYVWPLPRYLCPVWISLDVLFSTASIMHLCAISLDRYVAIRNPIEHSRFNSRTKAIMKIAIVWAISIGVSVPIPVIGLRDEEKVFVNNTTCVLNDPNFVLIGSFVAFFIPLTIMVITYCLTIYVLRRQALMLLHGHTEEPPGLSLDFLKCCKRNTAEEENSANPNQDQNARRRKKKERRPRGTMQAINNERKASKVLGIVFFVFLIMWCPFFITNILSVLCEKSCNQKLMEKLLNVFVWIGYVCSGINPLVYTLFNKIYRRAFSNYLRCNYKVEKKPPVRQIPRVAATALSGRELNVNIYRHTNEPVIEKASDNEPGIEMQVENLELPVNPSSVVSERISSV
Chain of Inhibitor of nuclear factor kappa-B kinase subunit beta (Homo sapiens) (O14920 whole entry): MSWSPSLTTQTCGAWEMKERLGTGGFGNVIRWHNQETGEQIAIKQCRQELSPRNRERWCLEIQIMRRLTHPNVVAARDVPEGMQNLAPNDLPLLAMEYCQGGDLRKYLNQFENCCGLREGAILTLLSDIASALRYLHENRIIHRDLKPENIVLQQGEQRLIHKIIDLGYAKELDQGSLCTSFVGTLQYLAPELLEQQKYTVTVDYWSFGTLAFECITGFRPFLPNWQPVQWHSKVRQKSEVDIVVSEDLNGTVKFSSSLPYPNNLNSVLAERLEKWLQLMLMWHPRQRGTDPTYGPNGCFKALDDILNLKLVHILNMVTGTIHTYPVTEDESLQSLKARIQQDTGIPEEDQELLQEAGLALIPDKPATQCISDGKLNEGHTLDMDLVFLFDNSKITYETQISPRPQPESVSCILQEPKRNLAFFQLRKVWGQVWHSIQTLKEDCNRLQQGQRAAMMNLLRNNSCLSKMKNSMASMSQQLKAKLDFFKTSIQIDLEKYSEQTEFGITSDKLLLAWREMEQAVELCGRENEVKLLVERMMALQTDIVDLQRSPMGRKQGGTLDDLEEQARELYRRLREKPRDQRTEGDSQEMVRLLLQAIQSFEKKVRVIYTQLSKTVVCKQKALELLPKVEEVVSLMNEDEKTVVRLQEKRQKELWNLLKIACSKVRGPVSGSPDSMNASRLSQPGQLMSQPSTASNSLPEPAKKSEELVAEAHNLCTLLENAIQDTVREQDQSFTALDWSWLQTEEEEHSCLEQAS
Chain of Serine/threonine-protein kinase DCLK3 (Homo sapiens) (Q9C098 whole entry): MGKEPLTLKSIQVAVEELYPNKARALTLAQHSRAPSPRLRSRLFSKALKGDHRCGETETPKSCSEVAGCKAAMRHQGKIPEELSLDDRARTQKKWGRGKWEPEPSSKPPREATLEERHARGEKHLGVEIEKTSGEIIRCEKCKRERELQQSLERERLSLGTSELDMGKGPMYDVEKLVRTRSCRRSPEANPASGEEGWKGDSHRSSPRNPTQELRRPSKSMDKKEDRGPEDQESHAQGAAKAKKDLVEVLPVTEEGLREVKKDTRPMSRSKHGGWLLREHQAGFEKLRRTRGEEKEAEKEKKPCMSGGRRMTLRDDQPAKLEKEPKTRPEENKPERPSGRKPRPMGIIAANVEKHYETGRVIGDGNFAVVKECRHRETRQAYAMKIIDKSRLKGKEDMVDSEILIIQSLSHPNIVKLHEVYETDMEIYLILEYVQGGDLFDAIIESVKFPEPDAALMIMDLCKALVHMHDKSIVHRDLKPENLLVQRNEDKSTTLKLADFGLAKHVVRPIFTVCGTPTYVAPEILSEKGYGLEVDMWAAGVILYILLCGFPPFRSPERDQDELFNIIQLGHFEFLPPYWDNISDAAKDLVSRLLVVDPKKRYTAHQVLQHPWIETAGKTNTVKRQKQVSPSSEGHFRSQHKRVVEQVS
Chain of Receptor-type tyrosine-protein kinase FLT3 (Homo sapiens), P36888 [UNDEFINED MUTATION] (P36888 whole entry, looked up, change not shown): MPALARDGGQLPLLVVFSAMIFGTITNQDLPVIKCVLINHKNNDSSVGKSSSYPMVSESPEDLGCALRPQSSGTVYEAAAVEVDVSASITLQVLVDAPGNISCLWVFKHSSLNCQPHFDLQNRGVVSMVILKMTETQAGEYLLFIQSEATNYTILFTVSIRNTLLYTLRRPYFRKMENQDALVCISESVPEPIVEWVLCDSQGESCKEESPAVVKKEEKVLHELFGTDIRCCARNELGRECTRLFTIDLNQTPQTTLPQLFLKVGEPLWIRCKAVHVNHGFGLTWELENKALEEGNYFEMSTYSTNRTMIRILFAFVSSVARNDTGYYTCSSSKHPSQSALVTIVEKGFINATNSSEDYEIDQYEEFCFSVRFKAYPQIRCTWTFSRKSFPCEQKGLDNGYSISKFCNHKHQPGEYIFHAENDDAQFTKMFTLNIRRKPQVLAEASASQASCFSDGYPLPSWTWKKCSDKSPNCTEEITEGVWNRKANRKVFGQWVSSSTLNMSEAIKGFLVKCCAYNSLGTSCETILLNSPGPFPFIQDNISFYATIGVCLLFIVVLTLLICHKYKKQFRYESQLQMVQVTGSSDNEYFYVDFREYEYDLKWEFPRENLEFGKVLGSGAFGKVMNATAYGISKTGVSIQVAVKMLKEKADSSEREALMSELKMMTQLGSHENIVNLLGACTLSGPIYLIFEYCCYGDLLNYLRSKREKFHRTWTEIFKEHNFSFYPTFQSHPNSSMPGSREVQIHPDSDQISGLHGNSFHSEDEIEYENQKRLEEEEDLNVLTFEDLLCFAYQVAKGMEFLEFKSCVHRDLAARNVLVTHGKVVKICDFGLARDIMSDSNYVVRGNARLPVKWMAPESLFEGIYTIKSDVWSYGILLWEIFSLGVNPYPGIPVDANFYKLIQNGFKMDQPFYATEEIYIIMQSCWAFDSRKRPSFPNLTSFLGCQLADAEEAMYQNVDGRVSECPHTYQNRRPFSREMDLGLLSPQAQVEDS
Chain of Serine/threonine-protein kinase pim-1 (Homo sapiens) (P11309 whole entry, looked up): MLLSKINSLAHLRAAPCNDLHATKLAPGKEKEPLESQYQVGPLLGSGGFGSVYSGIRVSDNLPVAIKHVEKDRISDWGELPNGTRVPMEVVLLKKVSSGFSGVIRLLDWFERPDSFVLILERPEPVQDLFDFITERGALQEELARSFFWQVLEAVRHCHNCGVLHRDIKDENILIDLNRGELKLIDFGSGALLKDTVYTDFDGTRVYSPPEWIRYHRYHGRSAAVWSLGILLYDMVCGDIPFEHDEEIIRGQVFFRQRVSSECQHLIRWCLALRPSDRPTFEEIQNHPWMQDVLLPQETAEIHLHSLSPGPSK

Cc1c(NC(=O)c2cc(C(N)=O)nc3cc(F)ccc23)c(C(F)(F)F)nn1Cc1ccc(C(C)(C)C)cc1 [BAY-588]
inactive: residual activity [1] 83% | residual activity [2] 100% | residual activity [3] 100% | residual activity [4] 100% | residual activity [5] 83% | residual activity [6] 100% | residual activity [7] 100% | residual activity [8] 100% | residual activity [9] 98% | residual activity [10] 100% | residual activity [11] 100% | residual activity [12] 100% | residual activity [13] 100% | residual activity [14] 100% | residual activity [15] 100% | residual activity [16] 100% | residual activity [17] 77% | residual activity [18] 100% | residual activity [19] 83% | residual activity [20] 100% | residual activity [21] 94% | residual activity [22] 79% | residual activity [23] 96% | residual activity [24] 100% | residual activity [25] 100% | residual activity [26] 100% | residual activity [27] 100% | residual activity [28] 88% | residual activity [29] 100% | residual activity [30] 95% | residual activity [31] 100% | residual activity [32] 94% | residual activity [33] 100% | residual activity [34] 100% | residual activity [35] 97% | residual activity [36] 92% | residual activity [37] 100% | residual activity [38] 100% | residual activity [39] 96% | residual activity [40] 91% | residual activity [41] 100% | residual activity [42] 100% | residual activity [43] 100% | inhibition [44] -2.42% | inhibition [45] 37.2%

Cc1c(NC(=O)c2cc(C(N)=O)nc3cc(F)ccc23)c(C(F)(F)F)nn1Cc1ccc(C#N)cc1 [BAY-876]
inactive: residual activity [1] 79% | residual activity [2] 81% | residual activity [3] 97% | residual activity [4] 81% | residual activity [5] 83% | residual activity [6] 100% | residual activity [7] 89% | residual activity [8] 96% | residual activity [9] 90% | residual activity [10] 88% | residual activity [11] 56% | residual activity [12] 75% | residual activity [13] 87% | residual activity [14] 100% | residual activity [15] 92% | residual activity [16] 92% | residual activity [17] 83% | residual activity [18] 100% | residual activity [19] 100% | residual activity [20] 96% | residual activity [21] 92% | residual activity [22] 88% | residual activity [23] 93% | residual activity [24] 95% | residual activity [25] 88% | residual activity [26] 77% | residual activity [27] 92% | residual activity [28] 79% | residual activity [29] 100% | residual activity [30] 84% | residual activity [31] 100% | residual activity [32] 100% | residual activity [33] 78% | residual activity [34] 86% | residual activity [35] 95% | residual activity [36] 95% | residual activity [37] 87% | residual activity [38] 86% | residual activity [39] 80% | residual activity [40] 80% | residual activity [41] 77% | residual activity [42] 81% | residual activity [43] 99% | inhibition [44] 6.9% | inhibition [45] 28.2%
